This is an account of results in article PMC7179128, “Characterizations and Assays of α-Glucosidase Inhibition Activity on Gallic Acid Cocrystals: Can the Cocrystals be Defined as a New Chemical Entity During Binding with the α-Glucosidase?” (Molecules, 2020).

A short description of data set [1]: Powder dissolution test in 0.1 mol∙L^−1 HCl. The format is physicochemical. To be noted: after 25 min, 37 ± 0.5 °C. The procedure: Co., Ltd., Shanghai, China) at 25 °C in five different solutions (pH 1, 2, 4, 8 and water, respectively) using the shake-flask method. Excess sample was added in the solvent and the suspension was shaken for 72 h in an air bath. The suspension was filtered through a 0.45 μm Millipore filter. Then, the GA concentration was determined using HPLC (Agilent 1200, Santa Clara, CA, USA). […] Approximately 50 mg of the sample (here single GA and cocrystals equivalent to 50 mg of GA) were placed in 900 mL dissolution media. Four milliliters of the suspensions were taken at appropriate intervals and immediately replaced by 4 mL of fresh dissolution media. All samples were filtered through a 0.45 μm Millipore filter. The concentration of GA in all samples were determined by HPLC. All tests were repeated thrice. Bioavailability in vivo was assayed using SD rats. […] The intragastric suspensions were prepared by suspending GA or the cocrystal (equivalent to same amount of GA) in 5% sodium carboxymethyl cellulose. Thereafter, the intragastric suspensions were orally administered to the rats at a single dose of 50 mg∙kg^-1. An approximately 500 μL blood sample was obtained from the eye canthus and collected into 1.5 mL heparinized plastic centrifuge tubes at the set time point after intragastric administration. […] The pharmacokinetic parameters were calculated using DAS 2.0 software.

Data set [2] is described as follows: Oral bioavailability / pharmacokinetics in SD rats. Format: in vivo. The following applies: rat, single dose 50 mg∙kg^−1 (GA equivalent), n = 6, GA in plasma. The procedure: Co., Ltd., Shanghai, China) at 25 °C in five different solutions (pH 1, 2, 4, 8 and water, respectively) using the shake-flask method. Excess sample was added in the solvent and the suspension was shaken for 72 h in an air bath. The suspension was filtered through a 0.45 μm Millipore filter. Then, the GA concentration was determined using HPLC (Agilent 1200, Santa Clara, CA, USA). […] Approximately 50 mg of the sample (here single GA and cocrystals equivalent to 50 mg of GA) were placed in 900 mL dissolution media. Four milliliters of the suspensions were taken at appropriate intervals and immediately replaced by 4 mL of fresh dissolution media. All samples were filtered through a 0.45 μm Millipore filter. The concentration of GA in all samples were determined by HPLC. All tests were repeated thrice. Bioavailability in vivo was assayed using SD rats. […] The intragastric suspensions were prepared by suspending GA or the cocrystal (equivalent to same amount of GA) in 5% sodium carboxymethyl cellulose. Thereafter, the intragastric suspensions were orally administered to the rats at a single dose of 50 mg∙kg^-1. An approximately 500 μL blood sample was obtained from the eye canthus and collected into 1.5 mL heparinized plastic centrifuge tubes at the set time point after intragastric administration. GA was extracted from plasma by protein precipitation. One hundred microliters of plasma was mixed with internal standard solution (20 μL) in the centrifuge tube; then, the solution of acetonitrile formic acid (2%, v/v) was added to precipitate the protein. […] Then, the supernatant was taken for determining the concentration of GA by the LC-MS/MS (MS:3200 QTRAP, AB SCIEX, MA, USA, LC: Agilent1200, Santa Clara, CA, USA) method. The blood concentration-time curve was drawn by taking blood sampling time as the horizontal coordinate and GA concentration as the vertical coordinate. The pharmacokinetic parameters were calculated using DAS 2.0 software.

Another data set has as its target α-glucosidase (Saccharomyces cerevisiae, UniProt P53341). As to the kind of experiment: α-glucosidase inhibitory activity in vitro (pNPG substrate, absorbance at 405 nm). The format is biochemical. The following applies: in vitro inhibition rate, Figure 4.

Chain of α-glucosidase (P53341 whole entry): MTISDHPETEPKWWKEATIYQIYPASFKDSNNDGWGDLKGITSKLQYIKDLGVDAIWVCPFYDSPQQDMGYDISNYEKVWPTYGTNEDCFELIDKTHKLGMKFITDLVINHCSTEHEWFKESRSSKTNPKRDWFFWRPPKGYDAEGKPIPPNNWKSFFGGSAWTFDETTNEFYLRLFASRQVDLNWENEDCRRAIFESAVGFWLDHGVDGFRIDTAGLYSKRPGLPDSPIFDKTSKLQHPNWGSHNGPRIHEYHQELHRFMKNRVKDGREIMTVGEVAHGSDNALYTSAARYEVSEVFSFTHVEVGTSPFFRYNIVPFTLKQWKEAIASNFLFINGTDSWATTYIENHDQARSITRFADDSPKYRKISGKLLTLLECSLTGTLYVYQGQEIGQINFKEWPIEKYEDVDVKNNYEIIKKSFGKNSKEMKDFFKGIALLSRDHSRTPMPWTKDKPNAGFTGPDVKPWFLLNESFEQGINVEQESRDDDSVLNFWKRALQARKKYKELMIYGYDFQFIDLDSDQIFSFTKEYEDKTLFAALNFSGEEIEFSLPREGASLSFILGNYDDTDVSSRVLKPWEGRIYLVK
Procedure for α-glucosidase: Briefly, accurately weighed α-glucosidase was dissolved in 0.1 mol∙L^−1 potassium phosphate buffer (pH 6.8) to produce 50 μL of enzyme solution with a concentration of 1.0 U∙mL^−1. Fifty microliters of enzyme solution and 50 μL of test sample were mixed in a well of a microtiter plate to incubate for 10 min at 37 °C. Three millimoles of pNPG in the same buffer was used as a substrate solution. After pre-incubation at 37 °C for 10 min, 50 μL of pNPG solution was added into above enzyme solution. The enzymatic reaction was allowed to proceed at 37 °C for 10 min, following the measurement of 4-nitrophenol absorbance at 405 nm on a microplate spectrophotometer. The solution without α-glucosidase was used as a blank. The solution without the test sample was used as a test. The solution without the test sample and α-glucosidase was used as a control.
IC50 values were obtained as the mean of three independent experiments, which were constructed by testing a series of concentrations (i.e., three curves were obtained, each in triplicate).

Broadly, the AUC(0-inf) is total exposure, with the tail of the curve extrapolated. As a reminder, the AUC(0-t) is exposure summed from dosing to a finite time, without extrapolation to infinity. A word on the Cmax: it is the maximum level reached in the sampled fluid or tissue. On to `O=C(O)c1cc(O)c(O)c(O)c1` [GA, gallic acid], for which the cumulative dissolution in data set [1] came out at 80%. In data set [2], the AUC(0-inf) was 4.2 ± 1.2 µg·h/mL, the AUC(0-t) was determined as 4.1 ± 1.2 µg·h/mL and the Cmax came out at 1.5 ± 0.5 µg/mL.

With `O=C1CCC(=O)N1` [succinimide], the “α-glucosidase inhibitory activity (in words)” value at α-glucosidase is recorded as “no inhibitory activity”.
